Laboratory results: patent publication US12365655B2, “Compounds” (CTXT PTY LTD, priority 2018, dated 2025)

Key:
TIP60-KAT5 = TIP60-KAT5 (Homo sapiens, UniProt Q92993); test: Acetyltransferase biochemical assay (AlphaScreen), KAT5
MOZ-KAT6A = MOZ-KAT6A (Homo sapiens, UniProt Q92794, A567V); test: Acetyltransferase biochemical assay (AlphaScreen), KAT6A
HBO-KAT7 = HBO-KAT7 (Homo sapiens, UniProt O95251); test: Acetyltransferase biochemical assay (AlphaScreen), KAT7
Sequence of HBO-KAT7 (O95251 with tags, fused parts or gaps): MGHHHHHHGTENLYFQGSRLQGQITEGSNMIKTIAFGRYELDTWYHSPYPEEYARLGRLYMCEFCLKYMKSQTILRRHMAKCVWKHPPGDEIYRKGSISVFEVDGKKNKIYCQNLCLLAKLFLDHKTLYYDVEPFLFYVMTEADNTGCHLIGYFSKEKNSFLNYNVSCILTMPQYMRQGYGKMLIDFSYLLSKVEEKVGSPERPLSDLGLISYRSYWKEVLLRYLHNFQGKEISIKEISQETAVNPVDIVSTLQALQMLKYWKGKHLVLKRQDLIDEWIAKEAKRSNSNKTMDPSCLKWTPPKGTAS

Sequence of MOZ-KAT6A (Q92794 with tags, fused parts or gaps A567V): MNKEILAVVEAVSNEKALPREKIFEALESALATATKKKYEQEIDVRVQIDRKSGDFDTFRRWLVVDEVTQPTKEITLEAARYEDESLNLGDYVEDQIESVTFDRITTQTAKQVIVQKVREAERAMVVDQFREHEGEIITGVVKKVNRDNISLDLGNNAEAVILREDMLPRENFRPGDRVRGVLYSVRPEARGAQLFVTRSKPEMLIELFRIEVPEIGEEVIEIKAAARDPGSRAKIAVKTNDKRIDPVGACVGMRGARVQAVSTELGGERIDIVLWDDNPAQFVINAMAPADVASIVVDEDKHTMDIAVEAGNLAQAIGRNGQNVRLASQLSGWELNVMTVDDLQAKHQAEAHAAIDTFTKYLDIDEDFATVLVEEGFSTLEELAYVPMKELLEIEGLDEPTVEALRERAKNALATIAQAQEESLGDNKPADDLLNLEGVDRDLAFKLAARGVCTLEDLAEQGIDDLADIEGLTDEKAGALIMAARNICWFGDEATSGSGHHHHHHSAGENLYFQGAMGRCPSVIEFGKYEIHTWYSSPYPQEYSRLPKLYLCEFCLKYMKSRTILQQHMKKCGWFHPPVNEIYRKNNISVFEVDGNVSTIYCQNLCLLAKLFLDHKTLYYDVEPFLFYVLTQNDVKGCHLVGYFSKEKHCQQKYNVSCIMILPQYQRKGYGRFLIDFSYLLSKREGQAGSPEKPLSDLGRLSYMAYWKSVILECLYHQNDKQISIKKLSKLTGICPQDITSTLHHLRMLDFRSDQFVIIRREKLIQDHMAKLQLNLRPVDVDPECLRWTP
Sequence of TIP60-KAT5 (Q92993 with tags, fused parts or gaps isoform Q92993-2): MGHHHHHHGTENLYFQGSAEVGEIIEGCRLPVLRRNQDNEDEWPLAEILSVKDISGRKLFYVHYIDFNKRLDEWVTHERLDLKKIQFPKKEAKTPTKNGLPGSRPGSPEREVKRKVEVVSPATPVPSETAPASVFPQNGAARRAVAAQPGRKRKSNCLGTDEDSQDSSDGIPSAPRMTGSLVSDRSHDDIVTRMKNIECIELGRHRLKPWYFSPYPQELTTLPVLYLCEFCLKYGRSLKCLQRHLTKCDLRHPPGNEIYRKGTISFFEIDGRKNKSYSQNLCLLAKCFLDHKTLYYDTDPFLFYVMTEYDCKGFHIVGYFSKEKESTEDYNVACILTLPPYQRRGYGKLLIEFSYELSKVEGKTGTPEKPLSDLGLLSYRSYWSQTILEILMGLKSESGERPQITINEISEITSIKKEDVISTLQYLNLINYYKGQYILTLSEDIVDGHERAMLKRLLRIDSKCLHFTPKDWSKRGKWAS

Compound CCc1ccc(OC)c(S(=O)(=O)Nc2noc3c(C(=O)N(C)C)cccc23)c1 [Example 185, 3-(5-Ethyl-2-methoxyphenylsulfonamido)-N,N-dimethylbenzo[d]isoxazole-7-carboxamide] has an IC50 (TIP60-KAT5) of over 125 µM, an IC50 (MOZ-KAT6A) of 105 µM and an IC50 (HBO-KAT7) of 60.7 µM.

COc1ccc(Br)cc1S(=O)(=O)Nc1noc2cccc(Cl)c12 [Example 45] showed an IC50 (TIP60-KAT5) of 34.3 µM, an IC50 (MOZ-KAT6A) of 2.08 µM and an IC50 (HBO-KAT7) of 6.83 µM.

In the case of COc1cc(C)c(C(C)C)cc1S(=O)(=O)Nc1noc2cccc(Cl)c12 [Example 37, N-(4-chlorobenzo [d]isoxazol-3-yl)-5-isopropyl-2-methoxy-4-methylbenzenesulfonamide], the IC50 (TIP60-KAT5) is reported as over 125 µM, the IC50 (MOZ-KAT6A) is reported as 24.8 µM and the IC50 (HBO-KAT7) is reported as 114 µM.

With O=S(=O)(Nc1noc2cccc(Cl)c12)c1cccc(-c2ccccc2)c1 [Example 43, N-(4-chlorobenzo [d]isoxazol-3-yl)-[1,1-biphenyl]-3-sulfonamide] the IC50 (TIP60-KAT5) was 23 µM, the IC50 (MOZ-KAT6A) was 5.97 µM and the IC50 (HBO-KAT7) was 12.9 µM.

Compound O=S(=O)(Nc1noc2cccc(Cl)c12)c1c(F)cccc1F [Example 29, N-(4-chlorobenzo [d]isoxazol-3-yl)-2,6-difluorobenzene sulfonamide] has an IC50 (TIP60-KAT5) of over 125 µM, an IC50 (MOZ-KAT6A) of over 125 µM and an IC50 (HBO-KAT7) of 94.1 µM.

CCc1ccc(OC)c(S(=O)(=O)Nc2noc3cc(-c4ncccn4)ccc23)c1 [Example 126, 5-Ethyl-2-methoxy-N-(6-(pyrimidin-2-yl)benzo[d]isoxazol-3-yl)benzenesulfonamide] gave an IC50 (TIP60-KAT5) of 51.3 µM, an IC50 (MOZ-KAT6A) of 10.5 µM and an IC50 (HBO-KAT7) of 28.9 µM.

Work on CCc1ccc(OC)c(S(=O)(=O)Nc2noc3cc(-n4nccn4)ccc23)c1 [Example 130] yielded an IC50 (TIP60-KAT5) of over 125 µM, an IC50 (MOZ-KAT6A) of 2.96 µM and an IC50 (HBO-KAT7) of 21.7 µM.

In the case of Cc1ccc(Br)cc1S(=O)(=O)Nc1noc2cccc(Cl)c12 [Example 114, 5-Bromo-N-(4-chlorobenzo[d]isoxazol-3-yl)-2-methylbenzenesulfonamide], the IC50 (TIP60-KAT5) is reported as 59.4 µM, the IC50 (MOZ-KAT6A) is reported as 29.3 µM and the IC50 (HBO-KAT7) is reported as 41.6 µM.

In the case of COc1cc(C#N)cc(-c2cc(OC)c3c(NS(=O)(=O)c4c(OC)cccc4OC)noc3c2)c1 [Example 251], the IC50 (TIP60-KAT5) is reported as 47 µM, the IC50 (MOZ-KAT6A) is reported as 1.16 µM and the IC50 (HBO-KAT7) is reported as 0.473 µM.

Work on COc1ccc(C)cc1S(=O)(=O)Nc1noc2ccccc12 [Example 47, N-(benzo[d]isoxazol-3-yl)-2-methoxy-5-methyl benzene sulfonamide] yielded an IC50 (TIP60-KAT5) of 123 µM, an IC50 (MOZ-KAT6A) of 12.9 µM and an IC50 (HBO-KAT7) of 29.4 µM.

With O=S(=O)(Nc1noc2cccc(Cl)c12)c1ccc2c(c1)OCCCO2 [Example 14, N-(4-chlorobenzo [d]isoxazol-3-yl)-3,4-dihydro-2H-benzo[b][1,4]dioxepine-7-sulfonamide] the IC50 (TIP60-KAT5) was over 125 µM, the IC50 (MOZ-KAT6A) was 45 µM and the IC50 (HBO-KAT7) was 15.2 µM.

In the case of CCc1ccc(OC)c(S(=O)(=O)Nc2noc3ccc(Br)c(Cl)c23)c1 [Example 128, N-(5-bromo-4-chlorobenzo[d]isoxazol-3-yl)-5-ethyl-2-methoxy benzenesulfonamide], the IC50 (TIP60-KAT5) is reported as 6.3 µM, the IC50 (MOZ-KAT6A) is reported as 0.25 µM and the IC50 (HBO-KAT7) is reported as 0.618 µM.

In the case of CCc1ccc(OC)c(S(=O)(=O)Nc2noc3ccc(Cn4cccn4)cc23)c1 [Example 225], the IC50 (TIP60-KAT5) is reported as over 125 µM, the IC50 (MOZ-KAT6A) is reported as 3.62 µM and the IC50 (HBO-KAT7) is reported as 31.1 µM.

CCc1ccc(OC)c(S(=O)(=O)Nc2noc3cc(Br)ccc23)c1 [Example 138] was tested, and the IC50 (TIP60-KAT5) was 5.11 µM, the IC50 (MOZ-KAT6A) was 2.89 µM and the IC50 (HBO-KAT7) was 3.68 µM.

Cn1c(=O)oc2cc(S(=O)(=O)Nc3noc4cccc(Cl)c34)ccc21 [Example 13, N-(4-chlorobenzo [d]isoxazol-3-yl)-3-methyl-2-oxo-2,3-dihydrobenzo[d]oxazole-6-sulfonamide] was tested, and the IC50 (TIP60-KAT5) was 120 µM, the IC50 (MOZ-KAT6A) was 63.9 µM and the IC50 (HBO-KAT7) was 63.8 µM.

Work on Cc1ccc(S(=O)(=O)Nc2noc3cccc(Cl)c23)cc1Cl [Example 31, 3-chloro-N-(4-chlorobenzo[d]isoxazol-3-yl)-4-methylbenzenesulfonamide] yielded an IC50 (TIP60-KAT5) of over 125 µM, an IC50 (MOZ-KAT6A) of 36.1 µM and an IC50 (HBO-KAT7) of 53.6 µM.

For CCc1ccc(OC)c(S(=O)(=O)Nc2noc3c(F)cccc23)c1 [Example 152], the IC50 (TIP60-KAT5) was 38.9 µM, the IC50 (MOZ-KAT6A) was 6.28 µM and the IC50 (HBO-KAT7) was 9.87 µM.

Compound O=S(=O)(Nc1noc2cccc(Cl)c12)c1ccc(Oc2ccc(F)cc2)cc1 [Example 17, N-(4-chlorobenzo[d]isoxazol-3-yl)-4-(4-fluorophenoxy) benzenesulfonamide] has an IC50 (TIP60-KAT5) of 27.7 µM, an IC50 (MOZ-KAT6A) of 11.8 µM and an IC50 (HBO-KAT7) of 14.6 µM.

Compound O=S(=O)(Nc1noc2cccc(Cl)c12)c1ccccc1Oc1ccccc1 [Example 4, N-(4-chlorobenzo [d]isoxazol-3-yl)-2-phenoxybenzene sulfonamide] has an IC50 (TIP60-KAT5) of 35.2 µM, an IC50 (MOZ-KAT6A) of 6.22 µM and an IC50 (HBO-KAT7) of 5.17 µM.

CCc1ccc(OC)c(S(=O)(=O)Nc2noc3c(C(=O)NC)cccc23)c1 [Example 184, 3-(5-Ethyl-2-methoxyphenylsulfonamido)-N-methylbenzo[d]isoxazole-7-carboxamide] gave an IC50 (TIP60-KAT5) of over 125 µM, an IC50 (MOZ-KAT6A) of over 125 µM and an IC50 (HBO-KAT7) of 31 µM.

With CCc1ccc(OC)c(S(=O)(=O)Nc2noc3c(CC)cccc23)c1 [Example 188] the IC50 (TIP60-KAT5) was 69.9 µM, the IC50 (MOZ-KAT6A) was 9.23 µM and the IC50 (HBO-KAT7) was 40.1 µM.

O=S(=O)(Nc1noc2cccc(Cl)c12)c1cccc2scnc12 [Example 15, N-(4-chlorobenzo [d]isoxazol-3-yl)benzo [d]thiazole-4-sulfonamide] gave an IC50 (TIP60-KAT5) of 7.29 µM, an IC50 (MOZ-KAT6A) of 1.91 µM and an IC50 (HBO-KAT7) of 1.46 µM.

COC(=O)c1ccc(Cl)cc1S(=O)(=O)Nc1noc2cccc(Cl)c12 [Example 115, Methyl 4-chloro-2-(N-(4-chlorobenzo[d]isoxazol-3-yl)sulfamoyl)benzoate] gave an IC50 (TIP60-KAT5) of 23.7 µM, an IC50 (MOZ-KAT6A) of 29 µM and an IC50 (HBO-KAT7) of 95.5 µM.

With O=S(=O)(Nc1noc2cccc(Cl)c12)c1ccc(F)c(F)c1F [Example 117, N-(4-Chlorobenzo[d]isoxazol-3-yl)-2,3,4-trifluorobenzenesulfonamide] the IC50 (TIP60-KAT5) was over 125 µM, the IC50 (MOZ-KAT6A) was 85.4 µM and the IC50 (HBO-KAT7) was over 125 µM.

Compound CCc1ccc(OC)c(S(=O)(=O)Nc2noc3cccc(COC)c23)c1 [Example 110, 5-Ethyl-2-methoxy-N-(4-(methoxymethyl)benzo [d]isoxazol-3-yl)benzenesulfonamide] has an IC50 (TIP60-KAT5) of over 125 µM, an IC50 (MOZ-KAT6A) of 7.89 µM and an IC50 (HBO-KAT7) of 17.5 µM.

O=S(=O)(Nc1noc2cccc(Cl)c12)c1cccc2nonc12 [Example 16, N-(4-chlorobenzo [d]isoxazol-3-yl)benzo[c][1,2,5]oxadiazole-4-sulfonamide] was tested, and the IC50 (TIP60-KAT5) was 30.2 µM, the IC50 (MOZ-KAT6A) was 15.1 µM and the IC50 (HBO-KAT7) was 9.63 µM.

In the case of O=S(=O)(Nc1noc2ccccc12)c1ccc(Cl)cc1Cl [Example 62, N-(benzo[d]isoxazol-3-yl)-2,4-dichlorobenzene-sulfonamide], the IC50 (TIP60-KAT5) is reported as over 125 µM, the IC50 (MOZ-KAT6A) is reported as 43.7 µM and the IC50 (HBO-KAT7) is reported as 70.6 µM.

COc1ccccc1S(=O)(=O)Nc1noc2cc(Br)ccc12 [Example 157] was tested, and the IC50 (TIP60-KAT5) was over 125 µM, the IC50 (MOZ-KAT6A) was 23 µM and the IC50 (HBO-KAT7) was 15.5 µM.

O=S(=O)(Nc1noc2ccccc12)c1ccc2c(c1)CCCC2 [Example 65, N-(benzo[d]isoxazol-3-yl)-5,6,7,8-tetrahydro-naphthalene-2-sulfonamide] was tested, and the IC50 (TIP60-KAT5) was over 125 µM, the IC50 (MOZ-KAT6A) was 27.9 µM and the IC50 (HBO-KAT7) was 59.7 µM.

COCc1ccc2c(NS(=O)(=O)c3c(OC)cccc3OC)noc2c1 [Example 103, 2,6-Dimethoxy-N-(6-(methoxymethyl)benzo [d]isoxazol-3-yl)benzenesulfonamide] was tested, and the IC50 (TIP60-KAT5) was 69.3 µM, the IC50 (MOZ-KAT6A) was 0.81 µM and the IC50 (HBO-KAT7) was 5.93 µM.

For O=S(=O)(Nc1noc2cccc(Cl)c12)c1ccc(S(F)(F)(F)(F)F)cc1 [Example 35, N-(4-chlorobenzo [d]isoxazol-3-yl)-4-(pentafluoro-λ^6-sulfanyl)benzene sulfonamide], the IC50 (TIP60-KAT5) was 33.8 µM, the IC50 (MOZ-KAT6A) was 4.63 µM and the IC50 (HBO-KAT7) was 8.75 µM.

Compound COCc1ccccc1S(=O)(=O)Nc1noc2cccc(Cl)c12 [Example 1, N-(4-chlorobenzo [d]isoxazol-3-yl)-2-(methoxymethyl) benzenesulfonamide] has an IC50 (TIP60-KAT5) of over 125 µM, an IC50 (MOZ-KAT6A) of 91.4 µM and an IC50 (HBO-KAT7) of 53.9 µM.

COc1cccc2onc(NS(=O)(=O)c3cccc4cccnc34)c12 [Example 83, N-(4-methoxybenzo[d]isoxazol-3-yl)quinoline-8-sulfonamide] gave an IC50 (TIP60-KAT5) of 17.9 µM, an IC50 (MOZ-KAT6A) of 13.6 µM and an IC50 (HBO-KAT7) of 3.79 µM.

In the case of COc1cccc(OC)c1S(=O)(=O)Nc1noc2ccc(C)cc12 [Example 104, 2,6-Dimethoxy-N-(5-methylbenzo[d]isoxazol-3-yl)benzenesulfonamide], the IC50 (TIP60-KAT5) is reported as 28.1 µM, the IC50 (MOZ-KAT6A) is reported as 0.786 µM and the IC50 (HBO-KAT7) is reported as 3.13 µM.

CCc1ccc(OC)c(S(=O)(=O)Nc2noc3cccc(CC)c23)c1 [Example 199] was tested, and the IC50 (TIP60-KAT5) was 14.9 µM, the IC50 (MOZ-KAT6A) was 0.709 µM and the IC50 (HBO-KAT7) was 0.632 µM.

COc1cc2c(cc1S(=O)(=O)Nc1noc3ccc(Br)cc13)CCCC2 [Example 113, N-(5-bromobenzo[d]isoxazol-3-yl)-3-methoxy-5,6,7,8-tetrahydronaphthalene-2-sulfonamide] was tested, and the IC50 (TIP60-KAT5) was 4.84 µM, the IC50 (MOZ-KAT6A) was 0.775 µM and the IC50 (HBO-KAT7) was 0.914 µM.

CCOc1ccc(CC)cc1S(=O)(=O)Nc1noc2ccccc12 [Example 57, N-(benzo[d]isoxazol-3-yl)-2-ethoxy-5-ethylbenzene sulfonamide] showed an IC50 (TIP60-KAT5) of over 125 µM, an IC50 (MOZ-KAT6A) of 56.2 µM and an IC50 (HBO-KAT7) of over 125 µM.

Compound COc1cccc(OC)c1S(=O)(=O)Nc1noc2cc(-c3ccncc3)cc(OC)c12 [Example 245, 2,6-Dimethoxy-N-(4-methoxy-6-(pyridin-4-yl)benzo[d]isoxazol-3-yl)benzenesulfonamide] has an IC50 (TIP60-KAT5) of 57.6 µM, an IC50 (MOZ-KAT6A) of 3.9 µM and an IC50 (HBO-KAT7) of 2.76 µM.

CC(C)Oc1ccc(S(=O)(=O)Nc2noc3cccc(Cl)c23)cc1 [Example 24, N-(4-chlorobenzo [d]isoxazol-3-yl)-4-isopropoxybenzene sulfonamide] gave an IC50 (TIP60-KAT5) of over 125 µM, an IC50 (MOZ-KAT6A) of over 125 µM and an IC50 (HBO-KAT7) of 33.9 µM.

For CCc1ccc(OC)c(S(=O)(=O)Nc2noc3c(Br)cccc23)c1 [Example 137], the IC50 (TIP60-KAT5) was 14.2 µM, the IC50 (MOZ-KAT6A) was 8.58 µM and the IC50 (HBO-KAT7) was 6.56 µM.
